One experiment concerns the target T1, human αvβ6 integrin (Homo sapiens, UniProt P06756+P18564).
T1 construct: using immobilized ECM protein and soluble integrin; purchased R&D Systems (Biotechne brand) 3817-AV
The experiment can be described thus: LAP(TGF-β1)-αvβ6 competitive solid-phase ELISA binding assay. The settings on record: immobilized LAP, soluble integrin. How it is done:
(§1) The affinity and selectivity of the integrin peptide ligands were ascertained according to a modified method previously reported by some of us.[33],[47] The binding was determined in a competitive solid-phase binding assay using extracellular matrix proteins, soluble integrins, and pertinent integrin-specific antibodies in an enzyme-linked immunosorbent assay (ELISA).
A flat-bottom 96-well ELISA plate was coated overnight at 4 °C with 100 μL/well of 0.4 μg/mL LAP previously diluted in carbonate buffer (15 mM Na2CO3, 35 mM NaHCO3, pH 9.6). Afterward, each well was then washed three times with 200 μL of PBS-T buffer (137 mM NaCl, 2.7 mM KCl, 10 mM Na2HPO4, 2 mM KH2PO4, 0.01% Tween 20, pH 7.4) and blocked for 1 h at room temperature with 150 μL/well TSB buffer (20 mM Tris–HCl, 150 mM NaCl, 1 mM CaCl2, 1 mM MgCl2, 1 mM MnCl2, pH 7.5, 1% BSA). Then, each well was washed three times with 200 μL of PBS-T.
Equal volumes (50 μL) of the internal standard (or test compounds) were mixed with 0.5 μg/mL human integrin αvβ6 (50 μL) giving a final dilution series in TSB buffer of 0.00064–10 μM for the inhibitors and 0.25 μg/mL for integrin αvβ6. These solutions (100 μL/well) were added to the flat-bottom ELISA plate and incubated for 1 h at room temperature. The solutions were discarded from the wells, and the plate was washed three times with PBS-T buffer (3 × 200 μL). […] The solutions were discarded from the wells, and the plate was washed three times with PBS-T (3 × 200 μL). The binding assay was developed by adding 50 μL/well of the 3,3′,5,5′-tetramethylbenzidine (TMB) liquid substrate system and incubating for 1 min at room temperature. The reaction was stopped by adding 50 μL/well of 3 M H2SO4. The peroxidase product formation was detected by measuring the absorbance at […] using a plate reader (Tecan SpectraFLUOR plus, Männedorf, Switzerland). Each compound concentration was tested in duplicate, and the resulting inhibition curves were analyzed using OriginPro 7.5G software; the inflection point describes the IC50 value. Each plate contained a linear peptide ([…]) as the internal standard.[63]

For a further experiment, the target named is T2, human αvβ8 integrin (Homo sapiens, UniProt P06756+P26012).
T2 construct: purchased R&D Systems (Biotechne brand) 4135-AV
Briefly: LAP(TGF-β1)-αvβ8 competitive solid-phase ELISA binding assay. The conditions noted are these: competitive ELISA, immobilized LAP, soluble integrin. How it is done:
as §1
The experimental procedure is as described for the αvβ6 assay, except for the following modifications. The plates were coated, washed, and blocked as described above. Soluble integrin αvβ8 was mixed with an equal volume of serially diluted inhibitors resulting in a final integrin concentration of 0.25 μg/mL and 0.0032–10 μM for the inhibitors. The primary and secondary antibodies are the same as in the integrin αvβ6 assay. Visualization and analysis were performed as described above. Each plate contained a linear peptide ([…]) as the internal standard.[3]
Background: An ELISA detects its analyte on a solid surface through an enzyme-linked reagent.

For experiment [1], the system named is recombinant R8102 HSV-1 strain. Briefly: Infection neutralization assay, 293T cells, R8102 HSV-1, β-galactosidase readout. The settings on record: increasing concentrations, 1 h prior to infection and 90 min during attachment. The format is cell-based. From the text:
The binding of HSV-1 gH/gL to either αvβ6 or αvβ8 results in the dissociation of gL from the heterodimer, which, in turn, can favor HSV entry into cells.[27] […] R1.302, a nectin1-neutralizing mAb, was used as a positive control. In the first set of experiments, 293T cells, expressing both the αvβ6 and αvβ8 integrins, were alternatively exposed to increasing concentrations of the integrin-binding peptides and R1.302 before and during the infection by the recombinant R8102 HSV-1 strain. This virion carries, indeed, a lacZ reporter gene under the control of the α27 promoter, whose expression analysis allows for readily quantifying the infectivity.[59] […] Remarkably, these preliminary results were in agreement with the known interchangeable and additive roles played by αvβ6 and αvβ8 integrins upon HSV-1 infection.[26]
Figure 3 Inhibition of HSV-1 infection. 293T cells were exposed to increasing concentrations of the indicated peptides for 1 h prior to infection and during virus attachment for another 90 min. Infection was induced using the recombinant R8102 HSV-1 strain and measured after 8 h as β-galactosidase activity, using o-nitrophenyl-D-galactopyranoside (ONPG) as a substrate. The assays were run in triplicate. Bars show standard deviation (SD).
The experiments were performed using 293T cells in 96-well plates with extracellular virions of R8102 at an input multiplicity of infection of 5 PFU/cell. Cells were exposed to increasing concentrations of the peptides for 1 h at 37 °C, and the viral inoculum was added in the presence of peptides for 90 min at 37 °C. After the removal of the inoculum and rinsing with DMEM containing 1% FBS, the cells were incubated without peptides for 8 h. The same protocol was followed for R1.302 mAb that was used as a positive control. The infection was quantified as β-Gal activity using o-nitrophenyl-D-galactopyranoside (ONPG) as a substrate.[86]

The subject of experiment [2] is recombinant K26GFP HSV-1 strain. Briefly: Infection neutralization assay, transfected J cells, K26GFP HSV-1, EGFP expression. The experiment is classed as cell-based. The conditions noted are these: all of the examined J cell samples, 700 μM. From the text:
To this aim, we selected the J cells, which are negative for gD receptors and therefore cannot be infected by HSV-1 unless gD cognate receptors (i.e., nectin1) are transgenically expressed. […] In particular, J cells were transfected with low amounts of nectin1 plasmid, plus either αvβ6 or αvβ8 integrin plasmid or both, and then infected with the recombinant K26GFP HSV-1 strain. Indeed, the capsid protein ICP26 of this strain is fused to the green fluorescent protein (GFP),[60] whose cellular expression can be used to measure the viral infection. Thus, the K26GFP entry in J cells after compound treatment was evaluated using fluorescent microscopy (Figure 4A–T), and the enhanced green fluorescent protein (EGFP) expression was quantified using flow cytometry as the mean fluorescence intensity (MFI) of gated cells (Figure 4U). […] In parallel, we also evaluated the HSV infection in J cells expressing nectin1 plus either αvβ6 or αvβ8 alone.
J cells were transfected with a low amount (75 ng of DNA/24 well) of nectin1 alone (A–E), or with the same amount of nectin1 plus αvβ6 integrin (300 ng DNA/24 well) (F–J), or plus αvβ8 integrin (300 ng DNA/24 well) (K–O), or plus both the integrin receptors (P–T). […] The cells were infected with K26GFP. The nonpenetrated virus was inactivated by an acid wash. Infectivity was measured at 16 h after infection as EGFP expression. (A)–(T) panels show the EGFP expression in each sample for a typical experiment. (U) K26GFP infection was quantified as EGFP protein expression in the flow cytometry assay as the mean fluorescence intensity (MFI) of gated cells. Histograms represent the average of triplicates ± SD.
In other experiments, J cells were transfected with low amounts of plasmids encoding nectin1 (75 ng of DNA/24 well), plus or minus plasmids encoding αv + β6 or αv + β8 integrins (300 ng of DNA/24 well) or together by means of Lipofect 2000 (Life Technologies). The total amount of transfected plasmid DNA was made equal (675 ng/24 well) by the addition of Erb-2 plasmid DNA. […] Following infection, the unpenetrated virus was inactivated by means of an acid wash (40 mM citric acid, 10 mM KCl, 135 mM NaCl, pH 3),[87] and the cells were incubated for a further 16 h in the absence of the peptides or antibody. The extent of infection was assessed through EGFP expression.
Cytofluorimetric analyses were performed using an AccuriC6 flow cytometer (Becton Dickinson). A least 10 000 events were acquired for each sample. Microphotography of the inhibition experiment was conducted using a Nikon Eclipse Ni microscope.

Usually IC50 stands for the concentration that gives 50% inhibition. Lower therefore signals inhibition by little substance. Turning to `CN1C(=O)[C@H](CC(=O)O)NC(=O)CNC(=O)[C@H](CCCNC(=N)N)NC(=O)CC[C@@H](C(N)=O)NC(=O)[C@@H]1C1CCCCC1` [compound 5, [Arg-Gly-Asp-(NMe)Chg-Glu]-CONH2], the IC50 at human αvβ6 integrin and at human αvβ8 integrin was greater than 5 µM each time.

`CN1C(=O)CC[C@@H](C(N)=O)NC(=O)[C@H](C2CCCCC2)NC(=O)[C@H](CC(=O)O)NC(=O)CNC(=O)[C@@H]1CCCNC(=N)N` [compound 2, [(NMe)Arg-Gly-Asp-Chg-Glu]-CONH2]: the IC50 at human αvβ6 integrin was 0.105 ± 0.008 µM; at human αvβ8 integrin, 2.25 ± 0.089 µM.

For the compound `CN1CC(=O)N[C@@H](CC(=O)O)C(=O)N[C@@H](C2CCCCC2)C(=O)N[C@H](C(N)=O)CCC(=O)N[C@@H](CCCNC(=N)N)C1=O` [compound 3, [Arg-(NMe)Gly-Asp-Chg-Glu]-CONH2], the IC50 was determined as 0.211 ± 0.026 µM on human αvβ6 integrin and 3.32 ± 0.122 µM on human αvβ8 integrin.

Consider `CC(C)[C@H]1C(=O)N[C@@H](CCCNC(=N)N)C(=O)NCC(=O)N[C@@H](CC(=O)O)C(=O)N[C@H](Cc2ccccc2)C(=O)N1C` [cilengitide, reference compound], for which the “effect on HSV-1 infection (in words)” value in experiment [1] is on record as “no alteration in the HSV entry process”. In experiment [2], the “effect on HSV entry (in words)” value was “no effect”.

The values above are taken from PMC8279406 (Journal of Medicinal Chemistry, 2021).
